Key:
[1] = molecular target: T1, Mineralocorticoid receptor (Homo sapiens, UniProt P08235); experiment: Agonist activity at mineralocorticoid receptor in human A549 cells; format: cell-based
T1 sequence (P08235 whole entry): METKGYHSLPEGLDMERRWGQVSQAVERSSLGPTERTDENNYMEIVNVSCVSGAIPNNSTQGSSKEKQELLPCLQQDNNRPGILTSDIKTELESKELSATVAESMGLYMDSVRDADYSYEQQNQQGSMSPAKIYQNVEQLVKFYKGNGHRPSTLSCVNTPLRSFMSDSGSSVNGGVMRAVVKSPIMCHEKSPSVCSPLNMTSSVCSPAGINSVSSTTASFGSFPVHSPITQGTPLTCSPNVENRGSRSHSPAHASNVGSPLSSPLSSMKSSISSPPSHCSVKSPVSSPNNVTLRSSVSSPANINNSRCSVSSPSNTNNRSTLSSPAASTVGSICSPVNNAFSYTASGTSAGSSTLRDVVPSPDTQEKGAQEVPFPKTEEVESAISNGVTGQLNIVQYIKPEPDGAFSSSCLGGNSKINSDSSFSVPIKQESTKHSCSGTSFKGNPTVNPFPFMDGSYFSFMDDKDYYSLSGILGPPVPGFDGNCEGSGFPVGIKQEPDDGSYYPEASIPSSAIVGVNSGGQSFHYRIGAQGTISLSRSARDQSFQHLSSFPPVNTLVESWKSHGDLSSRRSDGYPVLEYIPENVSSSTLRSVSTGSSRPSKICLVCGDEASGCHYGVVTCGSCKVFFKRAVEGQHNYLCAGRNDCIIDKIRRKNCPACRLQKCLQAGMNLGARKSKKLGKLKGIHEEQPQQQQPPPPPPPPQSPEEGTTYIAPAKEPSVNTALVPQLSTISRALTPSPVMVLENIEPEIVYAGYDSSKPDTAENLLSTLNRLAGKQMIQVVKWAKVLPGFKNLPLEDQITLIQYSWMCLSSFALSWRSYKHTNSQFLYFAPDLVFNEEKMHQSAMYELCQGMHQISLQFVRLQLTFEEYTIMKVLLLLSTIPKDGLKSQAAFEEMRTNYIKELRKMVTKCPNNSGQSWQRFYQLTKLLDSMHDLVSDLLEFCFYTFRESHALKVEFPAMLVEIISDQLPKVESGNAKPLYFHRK

Glucocorticoid receptor [2] = molecular target: T2, Glucocorticoid receptor (Homo sapiens, UniProt P04150); experiment: Binding affinity to glucocorticoid receptor (unknown origin) by fluorescence polarization assay
T2 sequence (P04150 whole entry): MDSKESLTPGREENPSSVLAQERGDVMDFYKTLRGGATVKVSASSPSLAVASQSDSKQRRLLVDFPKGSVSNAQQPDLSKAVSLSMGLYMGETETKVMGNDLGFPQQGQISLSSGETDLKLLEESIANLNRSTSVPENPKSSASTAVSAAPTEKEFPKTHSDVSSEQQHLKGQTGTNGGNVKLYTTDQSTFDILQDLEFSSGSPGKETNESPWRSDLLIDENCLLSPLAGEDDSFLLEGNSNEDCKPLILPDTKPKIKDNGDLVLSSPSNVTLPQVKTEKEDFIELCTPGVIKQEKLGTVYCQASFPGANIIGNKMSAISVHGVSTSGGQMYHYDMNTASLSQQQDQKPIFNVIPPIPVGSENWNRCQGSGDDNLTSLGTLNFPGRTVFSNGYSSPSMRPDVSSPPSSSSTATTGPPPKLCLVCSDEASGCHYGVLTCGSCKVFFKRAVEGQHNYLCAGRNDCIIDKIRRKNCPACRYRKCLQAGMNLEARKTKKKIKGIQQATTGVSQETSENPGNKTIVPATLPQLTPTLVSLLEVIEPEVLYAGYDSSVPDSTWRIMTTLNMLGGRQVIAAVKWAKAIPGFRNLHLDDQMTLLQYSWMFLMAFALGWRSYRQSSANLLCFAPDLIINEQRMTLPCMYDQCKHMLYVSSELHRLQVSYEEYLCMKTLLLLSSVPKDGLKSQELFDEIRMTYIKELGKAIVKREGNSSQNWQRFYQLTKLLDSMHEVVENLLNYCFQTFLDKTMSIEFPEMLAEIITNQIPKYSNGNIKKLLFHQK

Glucocorticoid receptor [3] = molecular target: T2, Glucocorticoid receptor; parameters: species or system Blood
Estrogen receptor = molecular target: T3, Estrogen receptor (Homo sapiens, UniProt P03372); experiment: Binding affinity to estrogen receptor-alpha (unknown origin)
T3 sequence (P03372 whole entry): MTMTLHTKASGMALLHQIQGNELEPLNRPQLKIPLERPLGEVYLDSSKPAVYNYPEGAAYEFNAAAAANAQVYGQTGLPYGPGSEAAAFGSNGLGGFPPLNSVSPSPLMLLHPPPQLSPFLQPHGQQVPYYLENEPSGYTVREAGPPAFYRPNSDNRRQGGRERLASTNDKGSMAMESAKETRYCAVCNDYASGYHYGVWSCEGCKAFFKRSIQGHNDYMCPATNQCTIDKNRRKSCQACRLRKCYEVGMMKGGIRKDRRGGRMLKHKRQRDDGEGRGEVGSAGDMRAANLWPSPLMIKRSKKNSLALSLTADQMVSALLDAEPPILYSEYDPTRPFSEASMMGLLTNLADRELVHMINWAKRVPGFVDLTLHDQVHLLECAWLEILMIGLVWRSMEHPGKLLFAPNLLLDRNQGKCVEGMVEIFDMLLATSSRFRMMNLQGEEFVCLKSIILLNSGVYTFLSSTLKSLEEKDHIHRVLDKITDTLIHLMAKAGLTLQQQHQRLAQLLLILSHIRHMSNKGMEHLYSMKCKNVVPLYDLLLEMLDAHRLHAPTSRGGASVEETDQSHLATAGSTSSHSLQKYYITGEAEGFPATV

EC50 [1] | Ki (Glucocorticoid receptor [2]) | EC50 (Glucocorticoid receptor [3]) | Ki (Estrogen receptor) | SMILES
> 5000 nM | 1.6 nM | 21.5 nM | > 75000 nM | CC(C)(C(=O)Nc1nncs1)[C@@H]1c2ccc(-c3ccc(C(=O)N4CCOCC4)cc3)nc2Oc2c(F)cccc21
> 5000 nM | 2.1 nM | 20.3 nM | > 75000 nM | CC(C)(C(=O)NC(N)=O)[C@@H]1c2ccc(-c3ccc(C(=O)N4CCOCC4)cc3)nc2Oc2c(F)cccc21
